Measurements: patent US11566007B2, “Ras inhibitors” (Revolution Medicines, Inc., priority 2019, dated 2023)
Read-outs that look alike come from different tables or passages of the source.

Tests used:
[1] = target: K-Ras G13C (Homo sapiens (Human), UniProt P01116+P62937, G13C); assay: Ras-Raf (BRAF RBD) disruption / FRET / MOA assay, KRAS G13C; type: biochemical; conditions: KRAS G13C; Ras-Raf disruption/FRET/MOA assay; read-out: IC50* KRAS G13C FRET data
Procedure, shortened: (§1)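 Ternary complex formation (Ras–compound–cyclophilin A) displacing BRAF RBD, monitored by TR-FRET. Three hours at 25° C with compound (top 30 μM final), then 1.5 h with the labelled antibodies. Lower ratio than DMSO indicates disruption; IC50 reported.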

[2] = target: KRAS G12D (Homo sapiens (Human), UniProt P01116+P62937, G12D); assay: Ras-Raf (BRAF RBD) disruption / FRET / MOA assay, KRAS G12D; type: biochemical; conditions: Ras-Raf disruption/FRET/MOA assay; class symbols; read-out: KRAS G12D FRET data IC50
Chain of KRAS G12D (P01116-2 other isoform, or with tags, fused parts or gaps G12D): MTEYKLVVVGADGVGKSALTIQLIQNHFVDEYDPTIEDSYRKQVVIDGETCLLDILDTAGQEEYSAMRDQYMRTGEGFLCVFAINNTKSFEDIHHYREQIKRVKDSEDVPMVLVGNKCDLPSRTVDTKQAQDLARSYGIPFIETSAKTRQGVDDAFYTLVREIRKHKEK
Chain of KRAS G12D (P62937 whole entry): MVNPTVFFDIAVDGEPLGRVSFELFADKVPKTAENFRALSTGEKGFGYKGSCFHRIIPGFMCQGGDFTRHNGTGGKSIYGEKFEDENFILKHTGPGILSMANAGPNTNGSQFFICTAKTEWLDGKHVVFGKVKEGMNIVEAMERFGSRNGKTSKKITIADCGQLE
Procedure, shortened: as §1

[3] = target: KRAS G12V (Homo sapiens (Human), UniProt P01116+P62937, G12V); assay: Ras-Raf (BRAF RBD) disruption / FRET / MOA assay, KRAS G12V; type: biochemical; conditions: read-out: IC50* KRAS G12V FRET data
Chain of KRAS G12V (P01116-2 other isoform, or with tags, fused parts or gaps G12V): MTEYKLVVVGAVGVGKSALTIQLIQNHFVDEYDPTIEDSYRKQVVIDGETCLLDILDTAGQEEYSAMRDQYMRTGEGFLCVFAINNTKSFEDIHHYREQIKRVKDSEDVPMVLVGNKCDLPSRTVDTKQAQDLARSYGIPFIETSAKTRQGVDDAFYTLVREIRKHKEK
Chain of KRAS G12V (P62937 whole entry): as the sequence (P62937 whole entry) above
Procedure, shortened: as §1

[4] = target: KRAS G13D (Homo sapiens (Human), UniProt P01116+P62937, G13D); assay: Ras-Raf (BRAF RBD) disruption / FRET / MOA assay, KRAS G13D; type: biochemical; conditions: read-out: IC50* KRAS G13D FRET data
Chain of KRAS G13D (P01116-2 other isoform, or with tags, fused parts or gaps G13D): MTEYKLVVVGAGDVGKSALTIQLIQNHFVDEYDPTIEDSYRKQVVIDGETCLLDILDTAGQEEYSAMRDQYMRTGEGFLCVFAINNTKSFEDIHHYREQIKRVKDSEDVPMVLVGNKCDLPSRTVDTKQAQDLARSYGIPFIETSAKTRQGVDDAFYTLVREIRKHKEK
Chain of KRAS G13D (P62937 whole entry): as the sequence (P62937 whole entry) above
Procedure, shortened: as §1

[5] = target: KRAS G12S (Homo sapiens (Human), UniProt P01116+P62937, G12S); assay: Ras-Raf (BRAF RBD) disruption / FRET / MOA assay, KRAS G12S; type: biochemical; conditions: Ras-Raf disruption/FRET/MOA assay; class symbols; read-out: KRAS G12S FRET data IC50
Chain of KRAS G12S (P01116-2 other isoform, or with tags, fused parts or gaps G12S): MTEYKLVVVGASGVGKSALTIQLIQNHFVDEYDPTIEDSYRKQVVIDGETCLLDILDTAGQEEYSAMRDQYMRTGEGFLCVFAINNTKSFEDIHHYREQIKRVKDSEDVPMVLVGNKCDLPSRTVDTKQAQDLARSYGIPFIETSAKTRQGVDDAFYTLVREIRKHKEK
Chain of KRAS G12S (P62937 whole entry): as the sequence (P62937 whole entry) above
Procedure, shortened: as §1

[6] = target: KRAS WT (Homo sapiens (Human), UniProt P01116+P62937); assay: Ras-Raf (BRAF RBD) disruption / FRET / MOA assay, KRAS WT; type: biochemical; conditions: read-out: IC50* KRAS WT FRET data
Chain of KRAS WT (P01116-2 other isoform, or with tags, fused parts or gaps): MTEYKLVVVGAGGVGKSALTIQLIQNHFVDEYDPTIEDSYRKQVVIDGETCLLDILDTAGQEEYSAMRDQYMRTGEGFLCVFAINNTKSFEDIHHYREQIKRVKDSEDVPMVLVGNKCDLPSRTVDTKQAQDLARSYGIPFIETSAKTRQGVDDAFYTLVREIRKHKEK
Chain of KRAS WT (P62937 whole entry): as the sequence (P62937 whole entry) above
Procedure, shortened: as §1

[7] = test system: NCI-H358 (K-Ras G12C); assay: CellTiter-Glo cell viability assay, NCI-H358; type: cell-based, human; conditions: Homo sapiens, NCI-H358, 120 h, class symbols
Procedure, shortened: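 Viability of K-Ras mutant lines is measured by ATP luminescence after five days of compound treatment. Percent of DMSO control is calculated and dose-response data are fitted with a four-parameter logistic equation.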

[8] = test system: NCI-H358 cells (K-Ras G12C); assay: Potency assay: pERK in NCI-H358 cells; type: cell-based, human; conditions: Homo sapiens, NCI-H358; H358 KRAS G12C; read-out: pERK EC50
Procedure, shortened: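 4 h cpd, 37 °C; 10-pt 3-fold series, 10 mM DMSO top stock, duplicates. Readout pERK: AlphaLISA SureFire Ultra or In-Cell Western (IR-800CW secondary, DRAQ5 DNA stain). IC50, 4-PL fit vs log conc.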

[9] = target: NRAS G12C (Homo sapiens (Human), UniProt P01111+P62937, G12C); assay: Ras-Raf (BRAF RBD) disruption / FRET / MOA assay, NRAS G12C; type: biochemical; conditions: read-out: IC50* NRAS G12C FRET data
Chain of NRAS G12C (P01111 whole entry G12C): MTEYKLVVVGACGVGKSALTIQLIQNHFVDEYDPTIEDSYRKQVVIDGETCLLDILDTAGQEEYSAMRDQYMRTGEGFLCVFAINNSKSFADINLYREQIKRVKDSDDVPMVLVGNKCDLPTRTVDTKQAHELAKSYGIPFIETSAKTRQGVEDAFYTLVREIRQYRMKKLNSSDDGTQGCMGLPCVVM
Chain of NRAS G12C (P62937 whole entry): as the sequence (P62937 whole entry) above
Procedure, shortened: as §1

[10] = target: K-Ras G12C (Homo sapiens (Human), UniProt P01116+P62937, G12C); assay: Ras-Raf (BRAF RBD) disruption / FRET / MOA assay, KRAS G12C; type: biochemical; conditions: KRAS G12C; Ras-Raf disruption/FRET/MOA assay; read-out: IC50* KRAS G12C FRET data
Chain of K-Ras G12C (P01116-2 other isoform, or with tags, fused parts or gaps G12C): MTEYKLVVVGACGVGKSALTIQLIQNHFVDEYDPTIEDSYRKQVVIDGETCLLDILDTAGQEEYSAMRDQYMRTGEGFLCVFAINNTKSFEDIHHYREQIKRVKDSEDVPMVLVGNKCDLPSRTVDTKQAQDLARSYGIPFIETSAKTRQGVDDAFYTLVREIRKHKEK
Chain of K-Ras G12C (P62937 whole entry): as the sequence (P62937 whole entry) above
Procedure, shortened: as §1

[11] = NCI-H358, 5-day treatment, read-out: Additional H358 Cell Viability assay data (K-Ras G12C, IC50)

Chain of K-Ras G13C (P01116-2 other isoform, or with tags, fused parts or gaps G13C): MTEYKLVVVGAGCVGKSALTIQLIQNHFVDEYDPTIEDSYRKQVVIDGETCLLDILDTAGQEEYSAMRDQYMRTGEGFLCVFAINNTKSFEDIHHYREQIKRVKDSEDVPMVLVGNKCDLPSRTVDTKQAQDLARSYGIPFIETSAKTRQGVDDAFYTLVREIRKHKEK
Chain of K-Ras G13C (P62937 whole entry): as the sequence (P62937 whole entry) above

SMILES	IC50 [1]	IC50 [2]	IC50 [3]	IC50 [4]	IC50 [5]	IC50 [6]	IC50 [7, 11]	EC50 [8]	IC50 [9]	IC50 [10]	IC50 ([7]; read-out: Additional H358 Cell Viability assay data (K-Ras G12C, IC50, uM), NCI-H358, 5-day treatment)
C=CC(=O)N1CCC2(CCN([C@H](C(=O)N[C@H]3Cc4cc(O)cc(c4)-c4ccc5c(c4)c(c(-c4cccnc4[C@H](C)OC)n5CC)CC(C)(C)COC(=O)[C@@H]4CCCN(N4)C3=O)C(C)C)C2=O)C1 (stereo partly shown) [Example A295]	0.01 to 0.1 µM	0.1 to 1 µM	0.01 to 0.1 µM	0.1 to 1 µM	0.01 to 0.1 µM	0.01 to 0.1 µM	< 0.01 µM	< 5 µM	0.01 to 0.1 µM	0.01 to 0.1 µM	–
C=CS(=O)(=O)N1CCC2(CCN([C@H](C(=O)N[C@H]3Cc4cc(O)cc(c4)-c4ccc5c(c4)c(c(-c4cccnc4[C@H](C)OC)n5CC)CC(C)(C)COC(=O)[C@@H]4CCCN(N4)C3=O)C(C)C)C2=O)C1 (stereo partly shown) [Example A298]	< 0.01 µM	0.1 to 1 µM	0.01 to 0.1 µM	0.01 to 0.1 µM	0.01 to 0.1 µM	0.01 to 0.1 µM	< 0.01 µM	< 5 µM	< 0.01 µM	< 0.01 µM	–
CCn1c(-c2cccnc2[C@H](C)OC)c2c3cc(ccc31)-c1cccc(c1)C[C@H](NC(=O)[C@H](C(C)C)N(C)C(=O)[C@H]1CCN(C(=O)C#C[C@]3(C)CCCN3C)C1)C(=O)N1CCC[C@H](N1)C(=O)OCC(C)(C)C2 [Example A317]	1 to 10 µM	> 10 µM	1 to 10 µM	> 10 µM	1 to 10 µM	1 to 10 µM	< 0.01 µM	< 5 µM	0.01 to 0.1 µM	< 0.01 µM	–
C=CC(=O)N1C2CC1CN(C(=O)N(C)[C@H](C(=O)N[C@H]1Cc3nc(cs3)-c3ccc4c(c3)c(c(-c3cccnc3[C@H](C)OC)n4CC)CC(C)(C)COC(=O)[C@@H]3CCCN(N3)C1=O)C(C)C)C2 [Example A408]	0.1 to 1 µM	1 to 10 µM	0.1 to 1 µM	1 to 10 µM	0.1 to 1 µM	0.1 to 1 µM	–	< 5 µM	0.1 to 1 µM	0.1 to 1 µM	0.01 to 0.1 µM
C=CC(=O)N1CC[C@H](C(=O)N(C)[C@H](C(=O)N[C@H]2Cc3csc(n3)-c3ccc4c(c3)c(c(-c3cc(N5CCN(C)CC5)cnc3[C@H](C)OC)n4CC(F)(F)F)CC(C)(C)COC(=O)[C@@H]3CCCN(N3)C2=O)C(C)C)C1 [Example A410]	0.1 to 1 µM	1 to 10 µM	0.1 to 1 µM	0.1 to 1 µM	0.1 to 1 µM	0.1 to 1 µM	< 0.01 µM	< 5 µM	0.01 to 0.1 µM	0.01 to 0.1 µM	–
C=CC(=O)N1CC2CCC1CN2C(=O)N(C)[C@H](C(=O)N[C@H]1Cc2nc(cs2)-c2ccc3c(c2)c(c(-c2cccnc2[C@H](C)OC)n3CC)CC(C)(C)COC(=O)[C@@H]2CCCN(N2)C1=O)C(C)C [Example A420]	0.1 to 1 µM	1 to 10 µM	0.1 to 1 µM	1 to 10 µM	0.1 to 1 µM	0.1 to 1 µM	0.01 to 0.1 µM	< 5 µM	0.1 to 1 µM	0.1 to 1 µM	–
CCn1c(-c2cccnc2[C@H](C)OC)c2c3cc(ccc31)-c1cccc(c1)C[C@H](NC(=O)[C@H](C(C)C)N(C)C(=O)[C@H]1CCN(C(=O)/C=C/CF)C1)C(=O)N1CCC[C@H](N1)C(=O)OCC(C)(C)C2 [Example A449]	0.1 to 1 µM	> 10 µM	1 to 10 µM	1 to 10 µM	1 to 10 µM	1 to 10 µM	0.01 to 0.1 µM	< 5 µM	0.1 to 1 µM	0.1 to 1 µM	–
C=CC(=O)N1CCC2(C1)OCN([C@H](C(=O)N[C@H]1Cc3cccc(c3)-c3ccc4c(c3)c(c(-c3cccnc3[C@H](C)OC)n4CC)CC(C)(C)COC(=O)[C@@H]3CCCN(N3)C1=O)C(C)C)C2=O (stereo partly shown) [Example A459]	0.1 to 1 µM	1 to 10 µM	1 to 10 µM	1 to 10 µM	1 to 10 µM	1 to 10 µM	0.01 to 0.1 µM	< 5 µM	0.01 to 0.1 µM	0.01 to 0.1 µM	–
CCn1c(-c2cccnc2[C@H](C)OC)c2c3cc(ccc31)-c1cccc(c1)C[C@H](NC(=O)[C@H](C(C)C)N(C)C(=O)[C@@H]1CCN(C(=O)C#CC(C)(C)N3CCC3)C1)C(=O)N1CCC[C@H](N1)C(=O)OCC(C)(C)C2 [Example A476]	0.1 to 1 µM	1 to 10 µM	1 to 10 µM	1 to 10 µM	1 to 10 µM	1 to 10 µM	< 0.01 µM	< 5 µM	0.01 to 0.1 µM	0.01 to 0.1 µM	–
C=CC(=O)N1CC(OCC(C(=O)N[C@H]2Cc3cccc(c3)-c3ccc4c(c3)c(c(-c3cccnc3[C@H](C)OC)n4CC)CC(C)(C)COC(=O)[C@@H]3CCCN(N3)C2=O)C(C)C)C1 (stereo partly shown) [Example A483]	1 to 10 µM	> 10 µM	1 to 10 µM	> 10 µM	> 10 µM	1 to 10 µM	< 0.01 µM	< 5 µM	0.1 to 1 µM	0.1 to 1 µM	–
C=CC(=O)N1CC[C@H](C(=O)N(C)[C@H](C(=O)N[C@H]2Cc3cccc(c3)-c3ccc4c(c3)c(c(-c3cccnc3[C@H](C)OC)n4CC#N)CC(C)(C)COC(=O)[C@@H]3CCCN(N3)C2=O)C(C)C)C1 [Example A510]	0.1 to 1 µM	1 to 10 µM	1 to 10 µM	1 to 10 µM	1 to 10 µM	1 to 10 µM	0.01 to 0.1 µM	< 5 µM	0.01 to 0.1 µM	0.01 to 0.1 µM	–
CCn1c(-c2cccnc2[C@H](C)OC)c2c3cc(ccc31)-c1cccc(c1)C[C@H](NC(=O)[C@H](C(C)C)N(C)C(=O)C1CCN(C(=O)C#C[C@@H]3CC(F)(F)CN3C)C1)C(=O)N1CCC[C@H](N1)C(=O)OCC(C)(C)C2 (stereo partly shown) [Example A526]	1 to 10 µM	> 10 µM	1 to 10 µM	> 10 µM	1 to 10 µM	1 to 10 µM	< 0.01 µM	< 5 µM	0.01 to 0.1 µM	0.01 to 0.1 µM	–
CCn1c(-c2cccnc2[C@H](C)OC)c2c3cc(ccc31)-c1cc(O)cc(c1)C[C@H](NC(=O)[C@H](C(C)C)N(C)C(=O)[C@H]1CCN(C(=O)/C=C/C(F)(F)F)C1)C(=O)N1CCC[C@H](N1)C(=O)OCC(C)(C)C2 [Example A527]	0.01 to 0.1 µM	0.1 to 1 µM	0.01 to 0.1 µM	0.01 to 0.1 µM	0.01 to 0.1 µM	0.01 to 0.1 µM	< 0.01 µM	< 5 µM	< 0.01 µM	< 0.01 µM	–
CCn1c(-c2cccnc2[C@H](C)OC)c2c3cc(ccc31)-c1cccc(c1)C[C@H](NC(=O)[C@H](C(C)C)N(C)C(=O)[C@H]1CCN(C(=O)C#C[C@@H]3COCCN3C)C1)C(=O)N1CCC[C@H](N1)C(=O)OCC(C)(C)C2 [Example A528]	1 to 10 µM	> 10 µM	1 to 10 µM	> 10 µM	1 to 10 µM	1 to 10 µM	< 0.01 µM	< 5 µM	0.01 to 0.1 µM	0.01 to 0.1 µM	–
CCn1c(-c2cccnc2[C@H](C)OC)c2c3cc(ccc31)-c1cc(O)cc(c1)C[C@H](NC(=O)[C@H](C(C)C)N(C)C(=O)c1ncc(NC(=O)/C=C/CN(C)C)n1C)C(=O)N1CCC[C@H](N1)C(=O)OCC(C)(C)C2 [Example A529]	< 0.01 µM	0.1 to 1 µM	0.1 to 1 µM	0.1 to 1 µM	0.1 to 1 µM	0.1 to 1 µM	0.01 to 0.1 µM	< 5 µM	< 0.01 µM	< 0.01 µM	–
CCn1c(-c2cccnc2[C@H](C)OC)c2c3cc(ccc31)-c1cccc(c1)C[C@H](NC(=O)[C@H](C(C)C)N(C)C(=O)[C@H]1CCN(C(=O)C#CC3(N(C)C)CCOC3)C1)C(=O)N1CCC[C@H](N1)C(=O)OCC(C)(C)C2 (stereo partly shown) [Example A533]	1 to 10 µM	> 10 µM	1 to 10 µM	> 10 µM	1 to 10 µM	1 to 10 µM	< 0.01 µM	< 5 µM	0.01 to 0.1 µM	0.01 to 0.1 µM	–
